Type in all cases: cell-based
Experiment [1] concerns the target T1, human P2X3 receptor (Homo sapiens, UniProt P56373).
T1 sequence (P56373 1-397): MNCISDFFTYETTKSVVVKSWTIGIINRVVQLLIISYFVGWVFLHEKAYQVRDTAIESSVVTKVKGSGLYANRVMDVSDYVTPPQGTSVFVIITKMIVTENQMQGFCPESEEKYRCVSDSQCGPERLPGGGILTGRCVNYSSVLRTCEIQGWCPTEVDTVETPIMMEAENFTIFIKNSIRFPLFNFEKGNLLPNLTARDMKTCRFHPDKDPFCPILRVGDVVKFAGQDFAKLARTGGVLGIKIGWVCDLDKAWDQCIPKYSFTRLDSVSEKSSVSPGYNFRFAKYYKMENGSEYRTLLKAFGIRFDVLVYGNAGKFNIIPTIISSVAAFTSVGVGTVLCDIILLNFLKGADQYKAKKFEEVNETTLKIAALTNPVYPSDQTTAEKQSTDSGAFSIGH
In words: Intracellular calcium measurement, antagonist activity at human P2X3 receptors (hP2X3 1321N1), Fluo8. More on the design: expressed in transfected cells; host or cells: human astrocytoma 1321N1 (1312N1 [sic]). As to conditions: column 3); 1321N1 cells, human P2X3, Fluo8, agonist ATP at EC50. The procedure, abridged: (§1)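 Inhibition of ATP-triggered Ca2+ transients is measured in 1321N1 cells expressing P2X3 homotrimers or P2X2/3 heterotrimers.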

In experiment [2] the target is T2, human P2X2/3 receptors (Homo sapiens, UniProt P56373+Q9UBL9).
T2 construct: expressed in transfected cells; host or cells: human astrocytoma 1321N1 (1312N1 [sic])
T2 sequence (P56373 1-397): T1 sequence (P56373 1-397)
T2 sequence (Q9UBL9 1-471): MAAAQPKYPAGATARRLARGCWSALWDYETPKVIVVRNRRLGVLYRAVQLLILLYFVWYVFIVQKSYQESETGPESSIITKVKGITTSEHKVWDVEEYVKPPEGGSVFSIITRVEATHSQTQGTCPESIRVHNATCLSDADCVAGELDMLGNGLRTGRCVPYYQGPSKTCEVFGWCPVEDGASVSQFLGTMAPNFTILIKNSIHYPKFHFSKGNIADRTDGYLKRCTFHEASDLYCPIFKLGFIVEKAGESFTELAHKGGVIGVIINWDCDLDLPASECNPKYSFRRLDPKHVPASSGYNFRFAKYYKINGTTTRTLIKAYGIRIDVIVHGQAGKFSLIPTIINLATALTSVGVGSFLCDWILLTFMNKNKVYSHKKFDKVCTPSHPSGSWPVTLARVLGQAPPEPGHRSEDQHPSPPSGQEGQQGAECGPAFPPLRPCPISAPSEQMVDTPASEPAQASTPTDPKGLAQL
In words: Intracellular calcium measurement, antagonist activity at human P2X2/3 receptors (hP2X23 1321N1), Fluo8. As to conditions: for IC50: column 4); 1321N1 cells, human P2X2/3, Fluo8, agonist ATP at EC50; read-out: 4) hP2X2/3 IC50 [nM] (1321N1); for hP2X23/hP2X3* Selectivity (1321N1): ratio of column 4) hP2X2/3 to column 3) hP2X3, 1321N1. In outline: as §1
(Calcium assays in cells follow changes in intracellular calcium, usually with a dye or a luminescent sensor.)

The target in experiment [3] is T1, human P2X3 receptor. As to the kind of experiment: Intracellular calcium measurement to assess antagonist activity at human P2X3 receptors (hP2X3 CHO), photina luminescence. The arrangement: expressed in transfected cells; host or cells: Chinese hamster ovary (CHO) cells. As to conditions: column 2), CHO cells, agonist α,β-methylene-ATP at EC50. The procedure, abridged: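 CHO cells stably expressing human P2X3 and mitochondrial photina, plated the day before at 30 °C, then loaded 3 h at 37 °C in 2 mM Ca-tyrode buffer with 5 μg/ml coelenterazine. Agonist-evoked calcium luminescence read immediately; inhibition seen as signal decrease.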

Structures are written as SMILES. A value given as a limit tells only on which side of the number the result lay.

`CC(C)Cc1cc2n(CC(=O)Nc3ccc(F)cn3)c3c(c(=O)n2n1)CN(C1CCCC1)C3=O` [Example 93]: the IC50 in experiment [1] was found to be 8 nM; in experiment [2] it was 2350 nM; in experiment [3], 6 nM. In addition, in experiment [2], the “hP2X23/hP2X3* Selectivity (1321N1)” value came to 295.

In the case of `CCc1cc2n(CC(=O)Nc3ccc(F)cn3)c3c(c(=O)n2n1)CN(C1CCOCC1)C3=O` [Example 94], the IC50 is 410 nM in experiment [1], over 23000 nM in experiment [2] and 290 nM in experiment [3]. Besides, the “hP2X23/hP2X3* Selectivity (1321N1)” value in experiment [2] is recorded as over 56.

Consider `CCc1cc2n(CC(=O)Nc3ccc(F)cn3)c3c(c(=O)n2n1)CN(CCN1CCOCC1)C3=O` [Example 95], for which the IC50 in experiment [1] is 273 nM; in experiment [2], over 22500 nM; in experiment [3] it was 178 nM. Further, the “hP2X23/hP2X3* Selectivity (1321N1)” value in experiment [2] is listed as over 82.

`CC(C)N1Cc2c(n(CC(=O)Nc3ccc(F)cn3)c3cc(CC4CCOCC4)nn3c2=O)C1=O` [Example 96]: the IC50 in experiment [1] is 26 nM; in experiment [2] it was 8800 nM; in experiment [3], 20 nM. Also, the “hP2X23/hP2X3* Selectivity (1321N1)” value in experiment [2] was found to be 345.

`COCCN1Cc2c(n(CC(=O)Nc3ccc(F)cn3)c3cc(C4CCOCC4)nn3c2=O)C1=O` [Example 97]: the IC50 in experiment [1] came to 47 nM; in experiment [2], 9750 nM; in experiment [3], 66 nM. Besides, the “hP2X23/hP2X3* Selectivity (1321N1)” value in experiment [2] turned out to be 207.

With `COCCN1Cc2c(n(CC(=O)Nc3ccc(F)cn3)c3cc(CC(C)C)nn3c2=O)C1=O` [Example 98], the figures for the IC50 in experiment [1], in experiment [2] and in experiment [3] were 12 nM, 2600 nM and 8 nM, respectively. In experiment [2], the “hP2X23/hP2X3* Selectivity (1321N1)” value is 211.

Regarding `CCc1cc2n(CC(=O)Nc3ccc(F)cn3)c3c(c(=O)n2n1)CN(C(COC)COC)C3=O` [Example 99], the IC50 is 15 nM in experiment [1], 9100 nM in experiment [2] and 21 nM in experiment [3]. Besides, the “hP2X23/hP2X3* Selectivity (1321N1)” value in experiment [2] amounted to 607.

As for `COCCN1Cc2c(n(CC(=O)Nc3ccc(F)cn3)c3cc(C4CC4)nn3c2=O)C1=O` [Example 100], the IC50 in experiment [1] was 20 nM; in experiment [2] it was 4850 nM; in experiment [3], 52 nM. For the same compound, the “hP2X23/hP2X3* Selectivity (1321N1)” value in experiment [2] is recorded as 243.

For `COC[C@H](C)N1Cc2c(n(CC(=O)Nc3ccc(F)cn3)c3cc(C4CC4)nn3c2=O)C1=O` [Example 101], the IC50 amounted to 13 nM in experiment [1], 6950 nM in experiment [2] and 28 nM in experiment [3]. In addition, the “hP2X23/hP2X3* Selectivity (1321N1)” value in experiment [2] was 535.

For `COC[C@H](C)N1Cc2c(n(CC(=O)Nc3ccc(F)cn3)c3cc(Cl)nn3c2=O)C1=O` [Example 102], the values for the IC50 in experiment [1], in experiment [2] and in experiment [3] were 81 nM, over 22500 nM and 114 nM, respectively. Further, in experiment [2], the “hP2X23/hP2X3* Selectivity (1321N1)” value is over 278.

On to `O=C(Cn1c2c(c(=O)n3nc(C4CC4)cc13)CN(CCN1CCOCC1)C2=O)Nc1ccc(F)cn1` [Example 104], for which the values for the IC50 in experiment [1], in experiment [2] and in experiment [3] were 120 nM, over 32000 nM and 69 nM, respectively. Besides, the “hP2X23/hP2X3* Selectivity (1321N1)” value in experiment [2] is on record as over 267.

`O=C(Cn1c2c(c(=O)n3nc(Cl)cc13)CN(CCN1CCOCC1)C2=O)Nc1ccc(F)cn1` [Example 105]: the IC50 in experiment [1] was 92 nM; in experiment [2], over 32000 nM; in experiment [3] it was 78 nM. In experiment [2], the “hP2X23/hP2X3* Selectivity (1321N1)” value was over 348.

On to `CCc1cc2n(CC(=O)Nc3ccc(F)cn3)c3c(c(=O)n2n1)CN(Cc1ccncc1)C3=O` [Example 106], for which the IC50 in experiment [1] is 46 nM; in experiment [2], 10500 nM; in experiment [3], 69 nM. The “hP2X23/hP2X3* Selectivity (1321N1)” value in experiment [2] came to 227.

Take `CCc1cc2n(CC(=O)Nc3ccc(F)cn3)c3c(c(=O)n2n1)CN(Cc1cccnc1)C3=O` [Example 107]: the values for the IC50 in experiment [1], in experiment [2] and in experiment [3] were 17 nM, 5000 nM and 18 nM, respectively. The “hP2X23/hP2X3* Selectivity (1321N1)” value in experiment [2] turned out to be 294.

Turning to `CCc1cc2n(CC(=O)Nc3ccc(F)cn3)c3c(c(=O)n2n1)CN(Cc1ccccn1)C3=O` [Example 108], the IC50 came to 16 nM in experiment [1], 3200 nM in experiment [2] and 18 nM in experiment [3]. For the same compound, in experiment [2], the “hP2X23/hP2X3* Selectivity (1321N1)” value turned out to be 200.

For the compound `CCc1cc2n(CC(=O)Nc3ccc(F)cn3)c3c(c(=O)n2n1)CN(CCCOC)C3=O` [Example 109], the IC50 in experiment [1] was 280 nM; in experiment [2], over 32000 nM; in experiment [3], 133 nM. Also, the “hP2X23/hP2X3* Selectivity (1321N1)” value in experiment [2] is over 114.

Turning to `COC[C@H](C)N1Cc2c(n(CC(=O)Nc3ccc(F)cn3)c3cc(C4CCC4)nn3c2=O)C1=O` [Example 110], the IC50 in experiment [1] is 12 nM; in experiment [2] it was 3050 nM; in experiment [3], 7 nM. The “hP2X23/hP2X3* Selectivity (1321N1)” value in experiment [2] was 254.

For the compound `CCc1cc2n(CC(=O)Nc3ccc(F)cn3)c3c(c(=O)n2n1)CN(Cc1ccc(F)cc1)C3=O` [Example 112], the IC50 in experiment [1] worked out at 11 nM; in experiment [2], 2550 nM; in experiment [3] it was 17 nM. Further, in experiment [2], the “hP2X23/hP2X3* Selectivity (1321N1)” value is 232.

Regarding `CC(C)N1Cc2c(n(CC(=O)Nc3ccc(F)cn3)c3cc(C4=CCN(C(=O)OC(C)(C)C)C4)nn3c2=O)C1=O` [Example 142, tert-butyl 3-[4-{2-[(5-fluoropyridin-2-yl)amino]-2-oxoethyl}-5,8-dioxo-6-(propan-2-yl)-5,6,7,8-tetrahydro-4H-pyrazolo[1,5-a]pyrrolo[3,4-d]pyrimidin-2-yl]-2,5-dihydro-1H-pyrrole-1-carboxylate], the IC50 in experiment [1] was 7 nM; in experiment [2], 1140 nM; in experiment [3], 11 nM. In addition, the “hP2X23/hP2X3* Selectivity (1321N1)” value in experiment [2] was 165.

In the case of `CC(C)N1Cc2c(n(CC(=O)Nc3ccc(F)cn3)c3cc(C4=CCN(C(=O)OC(C)(C)C)CC4)nn3c2=O)C1=O` [Example 143, tert-butyl 4-[4-{2-[(5-fluoropyridin-2-yl)amino]-2-oxoethyl}-5,8-dioxo-6-(propan-2-yl)-5,6,7,8-tetrahydro-4H-pyrazolo[1,5-a]pyrrolo[3,4-d]pyrimidin-2-yl]-3,6-dihydropyridine-1(2H)-carboxylate], the IC50 in experiment [1] was 34 nM; in experiment [2], 6600 nM; in experiment [3] it was 20 nM. Moreover, in experiment [2], the “hP2X23/hP2X3* Selectivity (1321N1)” value amounted to 197.

Regarding `CC(C)N1Cc2c(n(CC(=O)Nc3ccc(F)cn3)c3cc(C#N)nn3c2=O)C1=O` [Example 146, 2-[2-cyano-5,8-dioxo-6-(propan-2-yl)-5,6,7,8-tetrahydro-4H-pyrazolo[1,5-a]pyrrolo[3,4-d]pyrimidin-4-yl]-N-(5-fluoropyridin-2-yl)acetamide], the IC50 in experiment [1] worked out at 124 nM; in experiment [2], 6950 nM; in experiment [3] it was 97 nM. Besides, the “hP2X23/hP2X3* Selectivity (1321N1)” value in experiment [2] was 56.

For `CC(C)N1Cc2c(n(CC(=O)Nc3ccc(F)cn3)c3cc(-c4ccncc4)nn3c2=O)C1=O` [Example 149, 2-[5,8-dioxo-6-(propan-2-yl)-2-(pyridin-4-yl)-5,6,7,8-tetrahydro-4H-pyrazolo[1,5-a]pyrrolo[3,4-d]pyrimidin-4-yl]-N-(5-fluoropyridin-2-yl)acetamide], the IC50 in experiment [1] was found to be 13 nM; in experiment [2], 2110 nM; in experiment [3] it was 11 nM. Also, the “hP2X23/hP2X3* Selectivity (1321N1)” value in experiment [2] is 169.

For `CC(C)N1Cc2c(n(CC(=O)Nc3ccc(F)cn3)c3cc(-c4ccccc4)nn3c2=O)C1=O` [Example 150, 2-[5,8-dioxo-2-phenyl-6-(propan-2-yl)-5,6,7,8-tetrahydro-4H-pyrazolo[1,5-a]pyrrolo[3,4-d]pyrimidin-4-yl]-N-(5-fluoropyridin-2-yl)acetamide], the IC50 in experiment [1] was 16 nM; in experiment [2], 2250 nM; in experiment [3], 12 nM. Moreover, the “hP2X23/hP2X3* Selectivity (1321N1)” value in experiment [2] is 139.

Values taken from patent publication US11319324B2, “Pyrazolo-pyrrolo-pyrimidine-dione derivatives as P2X3 inhibitors” (Bayer Aktiengesellschaft, priority 2017, dated 2022).
